# Experimental data from US10273267B2, “Beta-hairpin peptidomimetics as selective elastase inhibitors” (POLYPHOR AG, priority 2013, dated 2019).
# *1 amine or outer side, *2 acyl side, *3 side chain or, on linkers, in order; H or OH if unused. Where a SMILES comes first, the peptide text is derived from it. [ ]: non-standard residue; d: D form. X3 = O=C(CC[C@H](Cc1ccc(O)cc1)N[*:1])[*:2]; X2 = C[C@@H](O)[C@@H](CCC(=O)[*:2])N[*:1]; Oic = O=C(O)[C@@H]1C[C@@H]2CCCC[C@@H]2N1; Gly(octyl) = CCCCCCCC[C@H](N)C(=O)O; N(CH2CH2COOH)Gly = O=C(O)CCNCC(=O)O; aThr = C[C@H](O)[C@H](N)C(=O)O; Pip = O=C(O)[C@@H]1CCCCN1; hSer = N[C@@H](CCO)C(=O)O
# Columns and labels:
# Type in all cases: biochemical
# [1] = target: T1, human neutrophil elastase (Homo sapiens, UniProt P08246); test: Inhibition of human neutrophil elastase (hydrolysis of MeOSuc-AAPV-pNA); details: substrate MeOSuc-AAPV-pNA 0.3 mM, enzyme 10 nM, 37° C., pH 8; read-out: Human neutrophil elastase (hNE) IC50
# T1 construct: purchased Serva Electrophoresis, Germany
# T1 sequence (P08246 30-267): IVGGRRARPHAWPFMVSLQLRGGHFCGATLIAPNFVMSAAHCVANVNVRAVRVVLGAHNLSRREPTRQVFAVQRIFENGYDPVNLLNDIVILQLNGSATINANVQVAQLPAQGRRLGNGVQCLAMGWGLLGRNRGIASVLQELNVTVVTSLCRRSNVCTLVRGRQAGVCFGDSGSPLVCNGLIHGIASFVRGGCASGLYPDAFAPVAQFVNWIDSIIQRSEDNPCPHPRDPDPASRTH
# Description: 2.2 Inhibition of Human Neutrophil Elastase
# The ability of the peptides of the invention to inhibit the hydrolysis activity of human neutrophil elastase (Serva Electrophoresis, Germany) using the synthetic tetrapeptidic substrate MeOSuc-AAPV-pNA (Bachem, Switzerland) was determined as follows:
# (§1) The above substrate (0.3 mM) and human neutrophil elastase (10 nM) were incubated at 37° C. with serial dilutions of the peptides (1% DMSO final) in assay buffer (50 mM Tris, pH 8, 300 mM NaCl, 0.01% Tween20). The release of pNA was followed by monitoring the change in absorbance at 405 nm for 30 minutes. Control assays with the same assay set-up as above, but without peptide, ran linearly. The dose-response data were fitted to the 4-parameter Hill equation providing the IC50 value using Graphpad (Prism 5).
# [2] = target: T2, porcine pancreatic elastase (Sus scrofa, UniProt P00772); test: Inhibition of porcine pancreatic elastase (hydrolysis of MeOSuc-AAA-pNA); details: for hNE/PPE selectivity: ratio of PPE IC50 to hNE IC50; for IC50: substrate MeOSuc-AAA-pNA 1 mM, enzyme 15 nM, 37° C., pH8, read-out: Porcine pancreatic elastase (PPE) IC50
# T2 construct: purchased Sigma, USA
# T2 sequence (P00772 27-266): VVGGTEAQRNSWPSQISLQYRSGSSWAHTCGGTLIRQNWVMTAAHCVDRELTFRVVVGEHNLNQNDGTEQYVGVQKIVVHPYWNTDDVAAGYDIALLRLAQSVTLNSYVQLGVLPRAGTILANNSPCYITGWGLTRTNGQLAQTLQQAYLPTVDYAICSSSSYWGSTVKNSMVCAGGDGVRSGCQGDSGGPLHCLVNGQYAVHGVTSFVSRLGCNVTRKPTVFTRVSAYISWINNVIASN
# Description: 2.3 Inhibition of Porcine Pancreatic Elastase
# The ability of the peptides of the invention to inhibit the hydrolysis activity of porcine pancreatic elastase (Sigma, USA) using the synthetic tripeptidic substrate MeOSuc-AAA-pNA (Bachem, Switzerland) was determined as follows:
# as §1, with “(1” for “(0.3”, “porcine pancreatic” for “neutrophil”, “(15” for “(10”, “(0.5%” for “(1%”, “pH8, 100” for “pH 8, 300”
# human proteinase 3 = target: T3, human proteinase 3 (Homo sapiens, UniProt P24158); test: Inhibition of human proteinase 3 (substrate Boc-Ala-Ala-Nva-SBzl); details: for hNE/hPr3 selectivity: ratio of hPr3 IC50 to hNE IC50; for IC50: substrate Boc-Ala-Ala-Nva-SBzl 1 mM, enzyme 10 nM, 37° C., pH7.4, read-out: Human proteinase 3 (hPr3) IC50
# T3 construct: purchased Elastin Products Company, USA
# T3 sequence (P24158 28-248): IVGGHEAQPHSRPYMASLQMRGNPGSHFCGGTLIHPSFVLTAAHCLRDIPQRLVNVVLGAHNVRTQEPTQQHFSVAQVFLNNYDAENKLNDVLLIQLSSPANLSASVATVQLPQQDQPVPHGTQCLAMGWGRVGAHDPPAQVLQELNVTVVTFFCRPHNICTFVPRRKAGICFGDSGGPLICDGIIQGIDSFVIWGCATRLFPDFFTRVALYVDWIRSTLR
# Description: 2.4 Inhibition of Human Proteinase 3
# The inactivation of human proteinase 3 (Elastin Products Company, USA) by the peptides of the invention using synthetic tripeptidic substrate Boc-Ala-Ala-Nva-SBzl (Elastin Products Company, USA) was determined as follows:
# as §1, with “(1 mM), 4,4′-dithiodipyridine (250 μM)” for “(0.3 mM)”, “proteinase 3” for “neutrophil elastase”, “(0.5%” for “(1%”, “pH7.4, 150” for “pH 8, 300”, “reaction process” for “release of pNA”, “340” for “405”
Structure (SMILES),IC50 [1] [nM],hNE/PPE selectivity [2],IC50 [2] [nM],hNE/hPr3 selectivity (human proteinase 3),IC50 (human proteinase 3) [nM]
"CCCCCCCC[C@@H]1NC(=O)[C@@H]2CCCN2C(=O)[C@H]2CCCN2C(=O)[C@H]([C@H](C)O)NC(=O)[C@H](CCCCN)NC(=O)[C@H](CCC(N)=O)NC(=O)[C@@H]2CCCN2C(=O)[C@@H]2CCCN2C(=O)[C@H]([C@@H](C)CC)NC(=O)[C@H](CO)NC(=O)[C@H](C)NC(=O)[C@H]([C@@H](C)O)NC(=O)[C@H](CCC(=O)O)NC1=O [Example 3, Cyclo(-OctGly-Glu-Thr-Ala-Ser-Ile-Pro-Pro-Gln-Lys-alloThr-^DPro-Pro-)] (cyclo([Gly(octyl)]ETASIPPQK[aThr][dP]P))",6.8,209,1420,149,1010
"CCCCCCCC[C@@H]1NC(=O)[C@@H]2CCCN2C(=O)[C@H]2CCCN2C(=O)CC[C@H]([C@@H](C)O)NC(=O)[C@H](CCCCN)NC(=O)[C@H](CCC(N)=O)NC(=O)[C@@H]2CCCN2C(=O)[C@@H]2CCCN2C(=O)[C@H]([C@@H](C)CC)NC(=O)[C@H](CO)NC(=O)[C@H](C)NC(=O)[C@H]([C@@H](C)O)NC(=O)[C@H](CCC(=O)O)NC1=O [Example 11, Cyclo(-OctGly-Glu-Thr-Ala-Ser-Ile-Pro-Pro-Gln-Lys-[H-γ^4-DiHThr-OH]-^DPro-Pro-)] (cyclo([Gly(octyl)]ETASIPPQK[X2][dP]P))",11.5,4217,48500,1835,21100
"CCCCCCCC[C@@H]1NC(=O)[C@@H]2CCCN2C(=O)[C@H]2CCCN2C(=O)[C@H](CCOC)NC(=O)[C@H](CCCCN)NC(=O)[C@H](CCC(N)=O)NC(=O)[C@@H]2CCCN2C(=O)[C@@H]2CCCN2C(=O)[C@H]([C@@H](C)CC)NC(=O)[C@H](CO)NC(=O)[C@H](C)NC(=O)[C@H]([C@@H](C)O)NC(=O)[C@H](CCC(=O)O)NC1=O [Example 1, Cyclo(-OctGly-Glu-Thr-Ala-Ser-Ile-Pro-Pro-Gln-Lys-hSer(Me)-^DPro-Pro-)] (cyclo([Gly(octyl)]ETASIPPQK[hSer](Me)[dP]P))",4.8,129,620,150,720
"CCCCCCCC[C@@H]1NC(=O)[C@@H]2CCCN2C(=O)[C@H]2CCCN2C(=O)CC[C@H](Cc2ccc(O)cc2)NC(=O)[C@H](CCCCN)NC(=O)[C@H](CCC(N)=O)NC(=O)[C@@H]2CCCN2C(=O)[C@@H]2CCCN2C(=O)[C@H]([C@@H](C)CC)NC(=O)[C@H](CO)NC(=O)[C@H](C)NC(=O)[C@H]([C@@H](C)O)NC(=O)[C@H](CCC(=O)O)NC1=O [Example 8, Cyclo(-OctGly-Glu-Thr-Ala-Ser-Ile-Pro-Pro-Gln-Lys-[H-γ^4-DiHTyr-OH]-^DPro-Pro-)] (cyclo([Gly(octyl)]ETASIPPQK[X3][dP]P))",19.8,91,1810,168,3330
"CCCCCCCC[C@@H]1NC(=O)[C@@H]2CCCN2C(=O)[C@H]2CCCN2C(=O)[C@H]([C@@H](C)O)NC(=O)[C@H](CCCCN)NC(=O)[C@H](CCC(N)=O)NC(=O)[C@@H]2CCCN2C(=O)CN(CCC(=O)O)C(=O)[C@H]([C@@H](C)CC)NC(=O)[C@H](CO)NC(=O)[C@H](C)NC(=O)[C@H]([C@@H](C)O)NC(=O)[C@H](CCC(=O)O)NC1=O [Example 7, Cyclo(-OctGly-Glu-Thr-Ala-Ser-Ile-Nglu-Pro-Gln-Lys-Thr-^DPro-Pro-)] (cyclo([Gly(octyl)]ETASI[N(CH2CH2COOH)Gly]PQKT[dP]P))",13.3,295,3920,305,4060

# Results, then the compound that gave them:
IC50 [1] [nM],hNE/PPE selectivity [2],IC50 [2] [nM],hNE/hPr3 selectivity (human proteinase 3),IC50 (human proteinase 3) [nM],Structure (SMILES)
7.1,324,2300,127,900,"CCCCCCCC[C@@H]1NC(=O)[C@@H]2CCCN2C(=O)[C@H]2CCCN2C(=O)[C@H]([C@@H](C)O)NC(=O)[C@H](CCCCN)NC(=O)[C@H](CCC(N)=O)NC(=O)[C@@H]2CCCCN2C(=O)[C@@H]2CCCN2C(=O)[C@H]([C@@H](C)CC)NC(=O)[C@H](CO)NC(=O)[C@H](C)NC(=O)[C@H]([C@@H](C)O)NC(=O)[C@H](CCC(=O)O)NC1=O [Example 45, Cyclo(-OctGly-Glu-Thr-Ala-Ser-Ile-Pro-Pip-Gln-Lys-Thr-^DPro-Pro-)] (cyclo([Gly(octyl)]ETASIP[Pip]QKT[dP]P))"
22.3,4036,90000,>4484,> 100000,"CCCCCCCC[C@@H]1NC(=O)[C@H](CCCCN)NC(=O)[C@@H](CO)NC(=O)[C@H]([C@@H](C)O)NC(=O)[C@H](CCCCN)NC(=O)[C@H](CCC(N)=O)NC(=O)[C@@H]2CCCN2C(=O)[C@@H]2CCCN2C(=O)[C@H]([C@@H](C)CC)NC(=O)[C@H](CO)NC(=O)[C@H](C)NC(=O)[C@H]([C@@H](C)O)NC(=O)[C@H](CCC(=O)O)NC1=O [Example 32, Cyclo(-OctGly-Glu-Thr-Ala-Ser-Ile-Pro-Pro-GI n-Lys-Thr-^DSer-Lys-)] (cyclo([Gly(octyl)]ETASIPPQKT[dS]K))"
7.9,>12658,> 100000,>12658,> 100000,CC[C@H](C)[C@@H]1NC(=O)[C@H](CO)NC(=O)[C@H](C)NC(=O)[C@H]([C@@H](C)O)NC(=O)[C@H](C(C)C)NC(=O)[C@H](CCCNC(=N)N)NC(=O)[C@@H]2CCCN2C(=O)[C@H]2CCCN2C(=O)[C@H]([C@@H](C)O)NC(=O)[C@H](CCCCN)NC(=O)[C@H](CCC(N)=O)NC(=O)[C@@H]2C[C@@H]3CCCC[C@@H]3N2C(=O)[C@@H]2CCCN2C1=O [Example 41] (cyclo(RVTASIP[Oic]QKT[dP]P))
12.4,4847,60100,5677,70400,"CCCCCCCC[C@@H]1NC(=O)[C@H](CCCCN)NC(=O)[C@@H](C(C)C)NC(=O)[C@H]([C@@H](C)O)NC(=O)[C@H](CCCCN)NC(=O)[C@H](CCC(N)=O)NC(=O)[C@@H]2CCCN2C(=O)[C@@H]2CCCN2C(=O)[C@H]([C@@H](C)CC)NC(=O)[C@H](CO)NC(=O)[C@H](C)NC(=O)[C@H]([C@@H](C)O)NC(=O)[C@H](CCC(=O)O)NC1=O [Example 22, Cyclo(-OctGly-Glu-Thr-Ala-Ser-Ile-Pro-Pro-Gln-Lys-Thr-^DVal-Lys-)] (cyclo([Gly(octyl)]ETASIPPQKT[dV]K))"
10.1,4366,44100,3921,39600,"CCCCCCCC[C@@H]1NC(=O)[C@H](Cc2ccc(O)cc2)NC(=O)[C@@H](CCCCN)NC(=O)[C@H]([C@@H](C)O)NC(=O)[C@H](CCCCN)NC(=O)[C@H](CCC(N)=O)NC(=O)[C@@H]2CCCN2C(=O)[C@@H]2CCCN2C(=O)[C@H]([C@@H](C)CC)NC(=O)[C@H](CO)NC(=O)[C@H](C)NC(=O)[C@H]([C@@H](C)O)NC(=O)[C@H](CCC(=O)O)NC1=O [Example 27, Cyclo(-OctGly-Glu-Thr-Ala-Ser-Ile-Pro-Pro-GI n-Lys-Thr-^DLys-Tyr-)] (cyclo([Gly(octyl)]ETASIPPQKT[dK]Y))"
